# Source: PubChem BioAssay AID1996
# Settings: buffer; pH 7.4; 200.0 µM
row,Compound,solubility kinetic
1,N#C/C(=C\c1cccc(O)c1)C(=O)N1CCCCC1,> 38.4 µg/mL
2,Cc1ccnc(NS(=O)(=O)c2ccc(NC(=O)c3oc4ccc(F)cc4c3C)cc2)n1,1.6 µg/mL
3,O=C(COc1ccc2ccc(=O)oc2c1)N1CCc2ccccc21,< 0.7 µg/mL
4,COc1ccc(CCNC(=O)CCC(=O)NC2CCCCC2)cc1OC,> 54.4 µg/mL
5,CC(C)NC(=O)c1cc(-c2cccs2)nc2ccccc12,4.6 µg/mL
6,COCCNC(=O)C(=O)c1c(-c2ccccc2)[nH]c2ccccc12,> 48.4 µg/mL
7,O=C(COC(=O)c1ccccc1Cl)NC1CCCCCCC1,34.1 µg/mL
8,Cc1ccc(N2CC(=O)Nc3c(oc4nc(-c5ccccc5)cc(C)c34)C2=O)cc1,< 0.3 µg/mL
9,O=C(OCc1c(F)cccc1Cl)c1cccnc1Cl,5.1 µg/mL
10,Cc1ccc(C(=O)O/N=C(\c2ccccc2)c2ccncc2)cc1,0.6 µg/mL
11,COc1ccc(CCC(=O)NCCOc2ccccc2Cl)cc1,> 50.1 µg/mL
12,CCN(CC)S(=O)(=O)c1cccc(C(=O)NC2=NCCS2)c1,34.8 µg/mL
13,c1ccc(-c2noc(CN3CCc4sccc4C3)n2)cc1,13.4 µg/mL
14,COc1ccc(Cl)cc1C(=O)Nc1cccnc1,22.1 µg/mL
15,COc1ccc(S(=O)(=O)NCCc2ccccc2)cc1OC,39.9 µg/mL
16,COc1ccc2c(COC(=O)CNS(=O)(=O)c3ccccc3)cc(=O)oc2c1,46 µg/mL
17,COc1ccccc1S(=O)(=O)Nc1cccc(S(=O)(=O)N2CCCC2)c1,> 59.5 µg/mL
18,CCCOc1ccc(-c2nc[nH]c2[N+](=O)[O-])cc1,0.5 µg/mL
19,NC(=O)COC(=O)C1c2ccccc2Oc2ccccc21,41.9 µg/mL
20,CCN(CC)CC(=O)NCC1(c2ccccc2)CCCC1,40.9 µg/mL

row,Compound,solubility kinetic
1,COc1ccc(S(=O)(=O)N2CCOCC2)cc1NC(=O)CSc1nc(C)c(C)c(C)n1,8.5 µg/mL
2,CCN(CC)S(=O)(=O)c1ccc(N2CC(C(=O)N3Cc4ccccc4CC3C(N)=O)CC2=O)cc1 (stereo not given),> 74.8 µg/mL
3,CCC(=O)NCCc1nc2cc(NC(=O)c3ccco3)ccc2n1C,48 µg/mL
4,Cc1ccc(OCCCCNC(C)c2ccccc2)c(C)c1 (stereo not given),32.2 µg/mL
5,CCCCCCCNc1cccc(C)c1,< 0.4 µg/mL
6,O=C(CN1CCN(c2ccc(Cl)cc2[N+](=O)[O-])CC1)N1CCOCC1,> 55.3 µg/mL
7,S=C(NCCc1ccccc1)N1CCCC1,> 35.2 µg/mL
8,CC(C)CCn1c(=O)[nH]c2ccccc21,> 30.6 µg/mL
9,CN(Cc1ccccc1)S(=O)(=O)c1ccc2c(c1)n(C)c(=O)c(=O)n2C,1.4 µg/mL
10,S=c1nccc(-c2ccc(Cl)cc2)[nH]1,26.7 µg/mL
11,COc1cc(OC)cc(C(=O)Nc2cccc3cccnc23)c1,< 0.3 µg/mL
12,COc1ccc(NC(=O)C(Cc2ccccc2)n2cccc2)c(OC)c1 (stereo not given),12.9 µg/mL
13,O=S(=O)(NCCc1ccccn1)c1ccc(-c2ccccn2)s1,30.6 µg/mL
14,O=C(CCC(=O)OCC(=O)c1cccc([N+](=O)[O-])c1)NC1CCCCC1,> 54.4 µg/mL
15,Cc1cc(C)cc(OC(C)C(=O)NCCCn2ccnc2)c1 (stereo not given),33.4 µg/mL
16,Cc1c(Cl)cccc1-n1cnc(=O)c2ccccc21,> 40.6 µg/mL
17,O=C(C[n+]1ccccc1)N1CCCc2ccccc21.[Cl-],> 43.3 µg/mL
18,CC(=O)N1CCn2c3c(c4cc(C)ccc42)CCCC31 (stereo not given),38.6 µg/mL
19,O=C(/C=C/c1ccccc1)Nc1sc2c(c1C(=O)O)CCC2,> 47 µg/mL
20,O=[N+]([O-])c1cc(NCCO)c(N2CCCCCC2)c2nonc12,42.3 µg/mL

row,Compound,solubility kinetic
1,O=C(NC(c1ccccc1)c1ccccc1)N1CCOCC1,> 44.5 µg/mL
2,COc1ccc(-c2c(C(F)(F)F)nn(C)c2NC(=O)c2ccco2)cc1,> 54.8 µg/mL
3,COc1ccc(C(C)NC(=O)Cc2cccs2)cc1OC (stereo not given),> 45.8 µg/mL
4,O=C1Nc2ccccc2C1Cc1ccc(OC(F)(F)F)cc1 (stereo not given),37.3 µg/mL
5,CCC(=O)Nc1ccc2c(c1)nc(CCNC(=O)c1ccco1)n2C,> 51.1 µg/mL
6,CCCCc1ccc(NC(=O)NCc2cccnc2)cc1,21.1 µg/mL
7,COc1cc(CNCc2cccc3ccccc23)cc(OC)c1,34.1 µg/mL
8,CC(C)N1CCN(Cc2cc3ccccc3[nH]2)CC1CCO (stereo not given),> 45.2 µg/mL
9,CC(=O)c1ccc(-n2ccc(=O)cc2)cc1,> 32 µg/mL
10,CN(Cc1ccccc1)/C(=N/O)c1cccc(Cl)c1,26.4 µg/mL
11,CS(=O)(=O)c1ccc(NCCc2ccccn2)c([N+](=O)[O-])c1,44.2 µg/mL
12,O=S(N1CCc2ccccc21)C12CC3CC(CC(C3)C1)C2 (stereo not given),4.4 µg/mL
13,CCN(CC)c1ccc(N)cc1S(=O)(=O)Nc1ccccc1OC,41.8 µg/mL
14,CCNC(=O)COC(=O)c1cc(C)nc2ccccc12,> 40.8 µg/mL
15,O=C(CN1C(=O)CCC1=O)Nc1nc(-c2ccc3ccccc3c2)cs1,1.8 µg/mL
16,COc1ccccc1/C=N/OC(=O)c1ccc(C)cc1,< 0.6 µg/mL
17,COc1ccc(Cl)cc1NC(=O)COC(=O)Cc1cc(OC)c(OC)c(OC)c1,46.6 µg/mL
18,Cc1ccccc1OCC(=O)OCC(=O)NCc1ccccc1Cl,14.1 µg/mL
19,C=CCn1c(SCC(=O)N(C)C)nc2cc(C(=O)O)ccc2c1=O,> 52.1 µg/mL
20,CSc1ncccc1C(=O)OCC(=O)Nc1ccc(C)c(S(=O)(=O)N2CCOCC2)c1,21 µg/mL
